Assay results reported in ChEMBL document CHEMBL5465560, “Selectivity Literature for EUbOPEN Chemogenomic Library” (2024).

Assays:
[1] = biological target: Activin receptor type-2A (Homo sapiens) (UniProt P27037); assay: Selectivity interaction (Ambit KINOMEscan and KiNATiv profiling in Jurkat cells) EUB0000090b ACVR2A; format: cell-based; settings: at 1 µM
[2] = biological target: Casein kinase I isoform gamma-1 (Homo sapiens) (UniProt Q9HCP0); assay: Selectivity interaction (Kinase panel (Invitrogen)) EUB0000639a CSNK1G1; settings: at 200 nM
[3] = biological target: T1, Protein kinase C epsilon type (Homo sapiens) (UniProt Q02156); assay: Selectivity interaction (Kinase panel (Invitrogen)) EUB0000639a PRKCE; settings: at 200 nM
T1 sequence (whole entry): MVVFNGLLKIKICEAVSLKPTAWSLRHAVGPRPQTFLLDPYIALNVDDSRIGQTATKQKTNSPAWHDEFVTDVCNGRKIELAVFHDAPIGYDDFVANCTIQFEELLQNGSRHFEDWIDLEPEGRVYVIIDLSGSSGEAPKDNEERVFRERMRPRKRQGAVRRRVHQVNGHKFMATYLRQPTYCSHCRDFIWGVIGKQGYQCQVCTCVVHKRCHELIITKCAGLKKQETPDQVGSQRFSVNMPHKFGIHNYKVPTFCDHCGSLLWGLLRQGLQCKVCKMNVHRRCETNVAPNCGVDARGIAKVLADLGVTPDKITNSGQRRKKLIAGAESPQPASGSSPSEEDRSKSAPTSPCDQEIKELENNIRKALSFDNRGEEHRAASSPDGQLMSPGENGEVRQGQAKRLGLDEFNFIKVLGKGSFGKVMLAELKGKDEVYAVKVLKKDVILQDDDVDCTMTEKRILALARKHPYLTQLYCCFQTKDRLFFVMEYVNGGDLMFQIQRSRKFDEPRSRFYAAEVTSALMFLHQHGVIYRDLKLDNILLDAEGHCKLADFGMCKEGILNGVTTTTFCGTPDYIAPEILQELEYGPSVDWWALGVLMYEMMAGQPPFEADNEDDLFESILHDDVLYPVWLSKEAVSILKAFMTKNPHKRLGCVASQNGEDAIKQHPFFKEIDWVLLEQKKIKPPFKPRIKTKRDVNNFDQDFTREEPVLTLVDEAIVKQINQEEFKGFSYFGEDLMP

[4] = biological target: T2, STE20-related kinase adapter protein alpha (Homo sapiens) (UniProt Q7RTN6); assay: Selectivity interaction (ActivX KiNativ screen (kinase selectivity in THP-1 cell lysates)) EUB0000639a STRADA; format: subcellular; settings: lysate, at 0.2 µM
T2 sequence (whole entry): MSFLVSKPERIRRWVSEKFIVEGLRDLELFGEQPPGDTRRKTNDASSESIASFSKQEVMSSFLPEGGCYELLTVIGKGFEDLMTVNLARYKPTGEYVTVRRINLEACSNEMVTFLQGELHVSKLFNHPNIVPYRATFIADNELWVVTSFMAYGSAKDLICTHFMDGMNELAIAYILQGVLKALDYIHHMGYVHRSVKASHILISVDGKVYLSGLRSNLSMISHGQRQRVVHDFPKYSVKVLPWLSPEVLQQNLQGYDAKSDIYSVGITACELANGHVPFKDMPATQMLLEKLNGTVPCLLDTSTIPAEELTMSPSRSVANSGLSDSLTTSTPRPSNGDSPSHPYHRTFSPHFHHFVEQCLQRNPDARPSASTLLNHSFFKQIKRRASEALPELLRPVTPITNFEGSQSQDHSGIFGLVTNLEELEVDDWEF

[5] = biological target: Phosphatidylinositol 4,5-bisphosphate 3-kinase catalytic subunit alpha isoform (Homo sapiens) (UniProt P42336); assay: (§1) Selectivity interaction (KinomeScan (DiscoverX)) EUB0000695a PIK3CA; settings: at 100 nM
[6] = test system: Phosphatidylinositol 4,5-bisphosphate 3-kinase catalytic subunit alpha isoform (Homo sapiens), P42336 [E542K]; assay: as §1; settings: at 100 nM
Sequence of Phosphatidylinositol 4,5-bisphosphate 3-kinase catalytic subunit alpha isoform (Homo sapiens), P42336 [E542K] (P42336 whole entry E542K, canonical isoform): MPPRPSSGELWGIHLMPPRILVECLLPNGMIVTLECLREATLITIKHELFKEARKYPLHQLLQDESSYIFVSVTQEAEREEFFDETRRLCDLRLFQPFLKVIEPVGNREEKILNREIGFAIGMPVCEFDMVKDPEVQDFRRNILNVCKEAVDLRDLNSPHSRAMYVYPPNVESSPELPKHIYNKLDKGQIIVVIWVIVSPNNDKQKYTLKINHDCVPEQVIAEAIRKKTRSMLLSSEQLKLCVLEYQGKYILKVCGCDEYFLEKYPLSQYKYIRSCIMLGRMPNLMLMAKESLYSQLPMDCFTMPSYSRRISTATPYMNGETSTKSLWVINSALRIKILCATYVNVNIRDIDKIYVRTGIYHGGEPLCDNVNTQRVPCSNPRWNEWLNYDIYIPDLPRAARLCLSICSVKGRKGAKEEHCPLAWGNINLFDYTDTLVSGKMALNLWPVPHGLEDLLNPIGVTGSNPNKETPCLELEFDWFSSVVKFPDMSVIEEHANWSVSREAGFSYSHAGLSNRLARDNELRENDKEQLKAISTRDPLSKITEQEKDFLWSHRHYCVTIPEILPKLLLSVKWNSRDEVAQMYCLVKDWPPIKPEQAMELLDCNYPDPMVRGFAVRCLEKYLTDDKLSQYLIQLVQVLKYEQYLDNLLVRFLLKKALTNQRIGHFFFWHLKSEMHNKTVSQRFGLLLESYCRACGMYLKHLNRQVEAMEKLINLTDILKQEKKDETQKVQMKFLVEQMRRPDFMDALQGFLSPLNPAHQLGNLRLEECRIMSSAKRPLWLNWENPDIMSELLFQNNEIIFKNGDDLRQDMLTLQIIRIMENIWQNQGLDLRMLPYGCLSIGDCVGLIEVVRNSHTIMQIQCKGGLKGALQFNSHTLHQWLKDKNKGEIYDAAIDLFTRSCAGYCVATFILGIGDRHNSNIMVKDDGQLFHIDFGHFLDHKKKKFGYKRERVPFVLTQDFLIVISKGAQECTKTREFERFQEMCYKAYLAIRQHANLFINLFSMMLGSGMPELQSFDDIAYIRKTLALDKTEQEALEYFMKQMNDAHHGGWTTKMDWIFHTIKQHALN

[7] = test system: Phosphatidylinositol 4,5-bisphosphate 3-kinase catalytic subunit alpha isoform (Homo sapiens), P42336 [E545K]; assay: as §1; settings: at 100 nM
[8] = test system: Phosphatidylinositol 4,5-bisphosphate 3-kinase catalytic subunit alpha isoform (Homo sapiens), P42336 [H1047L]; assay: as §1; settings: at 100 nM
Sequence of Phosphatidylinositol 4,5-bisphosphate 3-kinase catalytic subunit alpha isoform (Homo sapiens), P42336 [H1047L] (P42336 whole entry H1047L, canonical isoform): as the sequence (P42336 whole entry E542K, canonical isoform) above, with K542E, H1047L counted along it

SRSF protein kinase 1 = SRSF protein kinase 1 (Homo sapiens, UniProt Q96SB4); assay: Selectivity interaction (KinomeScan (DiscoverX)) EUB0000695a SRPK1; settings: at 100 nM
[9] = biological target: Death-associated protein kinase 1 (Homo sapiens, UniProt P53355); settings: at 10 µM
[10] = biological target: Receptor tyrosine-protein kinase erbB-4 (Homo sapiens, UniProt Q15303); assay: Selectivity interaction (KinomeScan (DiscoverX)) EUB0000045b ERBB4
Sequence of Receptor tyrosine-protein kinase erbB-4 (Q15303 whole entry): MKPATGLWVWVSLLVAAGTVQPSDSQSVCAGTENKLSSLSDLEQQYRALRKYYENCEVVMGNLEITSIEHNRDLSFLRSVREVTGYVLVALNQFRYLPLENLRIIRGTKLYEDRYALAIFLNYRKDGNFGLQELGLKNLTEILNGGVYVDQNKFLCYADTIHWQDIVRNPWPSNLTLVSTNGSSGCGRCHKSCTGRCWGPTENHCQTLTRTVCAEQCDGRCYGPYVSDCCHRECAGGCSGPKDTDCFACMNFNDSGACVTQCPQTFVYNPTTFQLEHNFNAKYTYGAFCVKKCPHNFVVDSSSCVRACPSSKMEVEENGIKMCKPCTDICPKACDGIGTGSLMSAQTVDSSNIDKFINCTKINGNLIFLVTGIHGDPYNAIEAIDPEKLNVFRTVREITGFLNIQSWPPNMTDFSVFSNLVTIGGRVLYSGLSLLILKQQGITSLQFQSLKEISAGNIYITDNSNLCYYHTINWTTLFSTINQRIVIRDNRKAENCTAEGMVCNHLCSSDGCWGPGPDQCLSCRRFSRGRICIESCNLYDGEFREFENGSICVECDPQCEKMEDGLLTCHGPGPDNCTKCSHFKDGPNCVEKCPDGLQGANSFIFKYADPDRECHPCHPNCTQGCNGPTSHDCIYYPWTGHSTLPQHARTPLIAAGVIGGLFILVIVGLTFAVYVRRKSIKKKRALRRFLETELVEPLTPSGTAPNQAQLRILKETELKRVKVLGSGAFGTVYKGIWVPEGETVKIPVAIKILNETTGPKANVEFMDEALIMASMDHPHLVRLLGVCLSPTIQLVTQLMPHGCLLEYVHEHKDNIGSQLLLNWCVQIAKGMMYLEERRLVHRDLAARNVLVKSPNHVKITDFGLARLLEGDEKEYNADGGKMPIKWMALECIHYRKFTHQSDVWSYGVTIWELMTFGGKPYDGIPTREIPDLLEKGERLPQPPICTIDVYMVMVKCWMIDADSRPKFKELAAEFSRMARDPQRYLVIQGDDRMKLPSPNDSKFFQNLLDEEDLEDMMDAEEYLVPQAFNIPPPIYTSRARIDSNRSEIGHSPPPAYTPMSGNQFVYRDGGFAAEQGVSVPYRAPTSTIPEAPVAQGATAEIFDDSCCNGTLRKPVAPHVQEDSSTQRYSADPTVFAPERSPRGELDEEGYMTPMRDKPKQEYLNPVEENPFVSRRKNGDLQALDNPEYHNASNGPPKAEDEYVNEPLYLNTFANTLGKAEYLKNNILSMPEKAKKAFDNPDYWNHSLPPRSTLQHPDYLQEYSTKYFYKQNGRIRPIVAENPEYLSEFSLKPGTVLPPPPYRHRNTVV

[11] = biological target: Mitogen-activated protein kinase 7 (Homo sapiens) (UniProt Q13164); assay: Selectivity interaction (KinomeScan (DiscoverX)) EUB0000655a MAPK7; settings: at 10 µM
Sequence of Mitogen-activated protein kinase 7 (Homo sapiens) (Q13164 2-816 limits assumed): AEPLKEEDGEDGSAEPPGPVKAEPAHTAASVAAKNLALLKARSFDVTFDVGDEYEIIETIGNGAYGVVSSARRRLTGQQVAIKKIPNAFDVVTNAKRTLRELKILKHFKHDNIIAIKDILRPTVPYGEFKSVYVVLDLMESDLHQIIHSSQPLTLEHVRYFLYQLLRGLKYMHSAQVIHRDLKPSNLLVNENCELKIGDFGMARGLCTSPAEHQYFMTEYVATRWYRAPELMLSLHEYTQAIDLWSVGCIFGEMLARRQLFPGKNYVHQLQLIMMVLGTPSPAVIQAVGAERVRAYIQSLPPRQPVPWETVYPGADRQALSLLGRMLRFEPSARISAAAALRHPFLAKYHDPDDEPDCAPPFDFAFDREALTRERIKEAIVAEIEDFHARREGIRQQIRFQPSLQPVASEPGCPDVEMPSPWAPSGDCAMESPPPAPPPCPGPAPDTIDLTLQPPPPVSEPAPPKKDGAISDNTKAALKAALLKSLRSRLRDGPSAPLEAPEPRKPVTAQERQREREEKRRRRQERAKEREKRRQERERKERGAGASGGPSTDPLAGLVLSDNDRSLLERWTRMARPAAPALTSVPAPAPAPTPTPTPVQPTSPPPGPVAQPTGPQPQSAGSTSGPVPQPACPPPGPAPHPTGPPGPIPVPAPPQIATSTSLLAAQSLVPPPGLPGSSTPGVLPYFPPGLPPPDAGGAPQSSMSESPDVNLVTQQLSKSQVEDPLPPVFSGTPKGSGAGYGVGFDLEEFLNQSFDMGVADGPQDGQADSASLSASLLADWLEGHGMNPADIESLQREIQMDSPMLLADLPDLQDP

[12] = biological target: T3, Serine/threonine-protein kinase Nek9 (Homo sapiens) (UniProt Q8TD19); assay: Selectivity interaction (KinomeScan (DiscoverX)) EUB0000618a NEK9; settings: at 10 µM
T3 sequence (whole entry): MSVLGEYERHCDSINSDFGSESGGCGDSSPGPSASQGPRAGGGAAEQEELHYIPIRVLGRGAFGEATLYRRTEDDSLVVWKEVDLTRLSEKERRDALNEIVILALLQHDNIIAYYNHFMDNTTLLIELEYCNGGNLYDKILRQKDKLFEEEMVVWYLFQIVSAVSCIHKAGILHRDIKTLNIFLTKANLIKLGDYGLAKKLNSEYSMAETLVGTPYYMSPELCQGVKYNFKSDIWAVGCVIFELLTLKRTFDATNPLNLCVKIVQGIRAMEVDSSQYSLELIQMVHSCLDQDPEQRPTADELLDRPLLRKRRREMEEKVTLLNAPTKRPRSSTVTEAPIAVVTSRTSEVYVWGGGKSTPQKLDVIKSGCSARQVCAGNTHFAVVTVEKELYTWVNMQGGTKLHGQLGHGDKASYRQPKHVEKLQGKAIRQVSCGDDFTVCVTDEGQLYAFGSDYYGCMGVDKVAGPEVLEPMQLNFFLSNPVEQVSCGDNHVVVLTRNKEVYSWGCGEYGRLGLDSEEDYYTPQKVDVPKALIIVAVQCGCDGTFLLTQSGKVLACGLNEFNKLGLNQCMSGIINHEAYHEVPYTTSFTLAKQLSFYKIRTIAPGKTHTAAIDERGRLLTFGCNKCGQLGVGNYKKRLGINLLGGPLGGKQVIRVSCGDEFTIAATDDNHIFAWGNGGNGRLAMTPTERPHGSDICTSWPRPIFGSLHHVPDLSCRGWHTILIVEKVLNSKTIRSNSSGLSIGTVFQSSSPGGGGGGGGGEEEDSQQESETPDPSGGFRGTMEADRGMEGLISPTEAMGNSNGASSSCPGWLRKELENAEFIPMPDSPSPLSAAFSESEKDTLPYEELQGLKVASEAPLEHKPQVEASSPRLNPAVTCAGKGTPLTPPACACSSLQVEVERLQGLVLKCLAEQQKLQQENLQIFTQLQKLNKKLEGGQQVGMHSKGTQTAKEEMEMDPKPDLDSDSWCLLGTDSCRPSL

[13] = biological target: Serine/threonine-protein kinase 38-like (Homo sapiens) (UniProt Q9Y2H1); assay: Selectivity interaction (Kinase panel (DSF assay)) EUB0001558a STK38L

Sequence of Activin receptor type-2A (Homo sapiens) (P27037 whole entry, canonical isoform): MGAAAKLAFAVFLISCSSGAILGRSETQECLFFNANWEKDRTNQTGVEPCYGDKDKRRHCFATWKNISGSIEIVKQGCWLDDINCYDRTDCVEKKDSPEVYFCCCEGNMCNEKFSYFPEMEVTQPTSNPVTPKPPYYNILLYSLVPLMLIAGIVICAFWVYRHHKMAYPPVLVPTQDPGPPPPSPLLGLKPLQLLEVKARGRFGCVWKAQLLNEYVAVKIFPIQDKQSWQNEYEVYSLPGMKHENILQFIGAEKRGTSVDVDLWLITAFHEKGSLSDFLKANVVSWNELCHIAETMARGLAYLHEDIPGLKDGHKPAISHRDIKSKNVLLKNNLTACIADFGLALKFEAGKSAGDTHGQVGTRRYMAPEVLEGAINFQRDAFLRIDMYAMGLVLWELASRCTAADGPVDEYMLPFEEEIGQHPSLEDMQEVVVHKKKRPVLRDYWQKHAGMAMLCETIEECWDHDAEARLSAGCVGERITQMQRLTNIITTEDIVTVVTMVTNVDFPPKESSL

Structure (SMILES): CN(C)C/C=C/C(=O)Nc1ccc(C(=O)N2CCCC(Nc3ncc(Cl)c(-c4c[nH]c5ccccc45)n3)C2)cc1 (stereo not given)
- % of control [1]: 83%

Structure (SMILES): CC[C@@H]1[C@H](F)C(=O)N[C@@H]1COc1nccc2cc(C(N)=O)c(OC)cc12 [ZIMLOVISERTIB]
- % of inhibition [2]: 69.1%
- % of inhibition [3]: -12.5%
- % of inhibition [4]: -15.4%

Structure (SMILES): Cc1cc(F)c(C(=O)Nc2cccc(-c3nncn3C(C)C)n2)cc1-n1cnc(C2CC2)c1
- % of control [5]: 100%
- % of control [6]: 100%
- % of control [7]: 99%
- % of control [8]: 100%
- % of control (SRSF protein kinase 1): 91%

Structure (SMILES): CCN(CC)CCCCNc1ncc2cc(-c3cc(OC)cc(OC)c3)c(NC(=O)NC(C)(C)C)nc2n1
- % of control [9]: 100%

Structure (SMILES): C=CC(=O)Nc1cc(-n2c(=O)ccc3cnc4ccc(-c5ccc(NS(C)(=O)=O)cc5)cc4c32)ccc1C
- % of control ([10]; at 1 µM): 78%
- % of control ([10]; at 10 µM): 18%

Structure (SMILES): CN(C)CCOc1ccc(-c2nc(-c3ccncc3)c(-c3ccc4c(c3)CC/C4=N\O)[nH]2)cc1
- % of control [11]: 97%

Structure (SMILES): O[C@H]1CC[C@H](Nc2ncc3nc(Nc4c(F)cc(F)cc4F)n([C@H]4CCOC4)c3n2)CC1
- % of control [12]: 100%

Structure (SMILES): CC(C)(O)[C@H](F)CN1Cc2cc(NC(=O)c3cnn4cccnc34)c(N3CCOCC3)cc2C1=O
- dTM [13]: -0.2 K
